Patent US20250215071A1, “Novel Mcl-1 inhibitor and combination of Mcl-1 and a BH3 mimetic, such as a Bcl-2 inhibitor” (NETRIS PHARMA, priority 2022, published 2025)

System: Mcl-1
Test: Mcl-1 protein levels by western blot in HeLa UNC5B cells
Type: cell-based, Human
Settings: 2 μg/mL Dox
Protocol: FIG. 4. UNC5B triggers proteasomal degradation of Mcl-1. (A,B): UNC5B-induced apoptosis requires proteasome activity. Stable Hela cells inducible for UNC5B (HeLa UNC5B) were treated with doxycycline (Dox) at 2 μg/mL, in combination with the indicated doses of the proteasome inhibitors MG132 and bortezomib (BTZ). 18 hours after treatment, apoptosis was measured by DNA fragmentation (A) and caspase-3 activity (B) (n=3-4, **** p<0.0001, ordinary two-way ANOVA with Tukey's multiple comparisons test). Values are given as means±SEM Treatment with proteasome inhibitors was sufficient to strongly reduce apoptosis induction upon UNC5B over-expression. (C): UNC5B triggers Mcl-1 degradation. HeLa UNC5B cells were treated with 2 μg/mL of Dox, in combination with bortezomib (BTZ, 1 μM) and the pan-caspase inhibitor Q-VD-OPh (QVD, 10 µM) inhibitors. 16 hours after treatment, cells were lysed by scraping and sonication in SDS-containing buffer. Protein levels of Mcl-1, Bcl-2 and Bcl-XL, as well as of UNC5B and B-actin, used as housekeeping gene, were evaluated by western blot. […] UNC5B over-expression specifically promoted Mcl-1 protein decrease. […] (D): Mcl-1 degradation induced by UNC5B requires COMMD2/CRL3 complex. HeLa UNC5B cells were transfected with scramble (siCTRL), COMMD2 (siCOMMD2) or RBX1 (siRBX1) siRNAs. […] Protein levels of Mcl-1, UNC5B and Ku80, used as housekeeping protein, were evaluated by western blot. […] Stable HeLa UNC5B cells, constitutively expressing Mcl-1 or empty vector, were treated with doxycycline and apoptosis was evaluated 18 hours later by DNA fragmentation (n=3, ^nsp>0.05, ordinary two-way ANOVA with Sidak's multiple comparisons test). […] Stable HeLa UNC5B cells, constitutively expressing Mcl-1, Bcl-2 or Bcl-XL were treated with Dox and protein levels were evaluated as described in (C). […] 18 hours later, protein levels of Mcl-1, UNC5B and β-actin, used as housekeeping gene, were evaluated by western blot. […] Cells were harvested at the indicated times after CHX treatment, and protein levels were assessed by western blot. […]

Compound: CC(C)C[C@H](NC(=O)[C@H](Cc1ccccc1)NC(=O)c1cnccn1)B(O)O [bortezomib]
- degradation of ectopically-expressed Mcl-1 (HeLa UNC5B cells constitutively expressing Mcl-1, 18 hours): restrained the degradation
- Mcl-1 protein levels / degradation triggered by UNC5B (endogenous Mcl-1, BTZ 1 μM, QVD 10 µM, 16 hours): increased but similar Mcl-1 protein levels in both untreated and doxycycline-treated cells
